pIC50: −log10 of the molar value. Several values for one entry are separate records, joined by “and”; a condition that tells them apart may be missing. Equal values may be shown once.
Tested on: 616215-338-R-J1-PDC complex spheroids, viability % test/control
Test: Anticancer human tumor 616215-338-R-J1-PDC patient-derived colon adenocarcinoma cell line growth inhibition [CLK]
Conditions: for viability, T/C: stronger effect = lower value
How it was run: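 Patient-derived tumor cells grown as complex spheroids with HUVEC endothelial cells and mesenchymal stem cells, treated with drug combinations. Concentrations descend in half-log steps from near clinical Cmax, or from 10 microM if Cmax unknown.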

[1] = curve of first compound, second compound 0.0316 µM
[2] = curve of first compound, second compound 0.1 µM
[3] = curve of first compound, second compound 0.316 µM
[4] = curve of first compound, second compound 1 µM
[5] = curve of first compound, second compound 3.16 µM
[6] = curve of first compound, second compound 10 µM
[7] = second compound 0.0316 µM, first compound 0.0316 µM
[8] = second compound 0.0316 µM, first compound 0.1 µM
[9] = second compound 0.0316 µM, first compound 0.316 µM
[10] = second compound 0.0316 µM, first compound 1 µM
[11] = second compound 0.1 µM, first compound 0.0316 µM
[12] = second compound 0.1 µM, first compound 0.1 µM
[13] = second compound 0.1 µM, first compound 0.316 µM
[14] = second compound 0.1 µM, first compound 1 µM
[15] = second compound 0.316 µM, first compound 0.0316 µM
[16] = second compound 0.316 µM, first compound 0.1 µM
[17] = second compound 0.316 µM, first compound 0.316 µM
[18] = second compound 0.316 µM, first compound 1 µM
[19] = second compound 1 µM, first compound 0.0316 µM
[20] = second compound 1 µM, first compound 0.1 µM
[21] = second compound 1 µM, first compound 0.316 µM
[22] = second compound 1 µM, first compound 1 µM
[23] = second compound 3.16 µM, first compound 0.0316 µM
[24] = second compound 3.16 µM, first compound 0.1 µM
[25] = second compound 3.16 µM, first compound 0.316 µM
[26] = second compound 3.16 µM, first compound 1 µM
[27] = second compound 10 µM, first compound 0.0316 µM
[28] = second compound 10 µM, first compound 0.1 µM
[29] = second compound 10 µM, first compound 0.316 µM
[30] = second compound 10 µM, first compound 1 µM
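Further: spheroids exposed to agents for 7 days.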
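Wherever viability, T/C is given: 100% = DMSO vehicle wells.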

COc1ccc([C@@H](O)c2cc(-c3ncnc4cc(N5CCOCC5)ccc34)c(F)cc2Cl)nn1 + CN1CCN(c2cc(C(=O)Nc3cc4cc(-c5cnn(C)c5)ccc4cn3)ccn2)CC1 showed a pIC50 [1] of less than 5.00, a pIC50 [2] of 5.02 and a pIC50 [3] greater than 7.50. The pIC50 [4] was greater than 7.50, the pIC50 [5] was greater than 7.50 and the pIC50 [6] was greater than 7.50. It also gave a viability, T/C [7] of 105%, a viability, T/C [8] of 106% and a viability, T/C [9] of 105%. It also gave a viability, T/C [10] of 109%, a viability, T/C (second compound 0.0316 µM, first compound 3.16 µM) of 111% and a viability, T/C (second compound 0.0316 µM, first compound 10 µM) of 67.7%. It also gave a viability, T/C [11] of 122%, a viability, T/C [12] of 107% and a viability, T/C [13] of 104%. The viability, T/C [14] was 103%, the viability, T/C (second compound 0.1 µM, first compound 3.16 µM) was 88.4% and the viability, T/C (second compound 0.1 µM, first compound 10 µM) was 47.2%. The viability, T/C [15] was 25.2%, the viability, T/C [16] was 30.6% and the viability, T/C [17] was 25.9%. For the same molecule, the viability, T/C [18] was 19.8%, the viability, T/C (second compound 0.316 µM, first compound 3.16 µM) was 17.9% and the viability, T/C (second compound 0.316 µM, first compound 10 µM) was 7.77%. The viability, T/C [19] was 0.11%, the viability, T/C [20] was 0.15% and the viability, T/C [21] was 1.72%. For the same molecule, the viability, T/C [22] was 0.1%, the viability, T/C (second compound 1 µM, first compound 3.16 µM) was 0.59% and the viability, T/C (second compound 1 µM, first compound 10 µM) was 0.08%. For the same molecule, the viability, T/C [23] was 0.09%, the viability, T/C [24] was 0.13% and the viability, T/C [25] was 0.15%. For the same molecule, the viability, T/C [26] was 0.1%, the viability, T/C (second compound 3.16 µM, first compound 3.16 µM) was 0.14% and the viability, T/C (second compound 3.16 µM, first compound 10 µM) was 0.12%. It also gave a viability, T/C [27] of 0.11%, a viability, T/C [28] of 0.13% and a viability, T/C [29] of 0.18%. It also gave a viability, T/C [30] of 0.18%, a viability, T/C (second compound 10 µM, first compound 3.16 µM) of 1.74% and a viability, T/C (second compound 10 µM, first compound 10 µM) of 0.19%.
CCc1c2c(nc3ccc(O)cc13)-c1cc3c(c(=O)n1C2)COC(=O)[C@]3(O)CC + CN1CCN(c2cc(C(=O)Nc3cc4cc(-c5cnn(C)c5)ccc4cn3)ccn2)CC1 gave a pIC50 [1] of 8.02, a pIC50 [2] of 8.44 and a pIC50 [3] greater than 8.50. The pIC50 [4] was greater than 8.50, the pIC50 [5] was greater than 8.50 and the pIC50 [6] was greater than 8.50. It also gave a viability, T/C (second compound 0.0316 µM, first compound 0.00316 µM) of 98.2%, a viability, T/C (second compound 0.0316 µM, first compound 0.01 µM) of 42.2% and a viability, T/C [7] of 32.1%. It also gave a viability, T/C [8] of 18%, a viability, T/C [9] of 12.9% and a viability, T/C [10] of 4.92%. It also gave a viability, T/C (second compound 0.1 µM, first compound 0.00316 µM) of 50.8%, a viability, T/C (second compound 0.1 µM, first compound 0.01 µM) of 40.2% and a viability, T/C [11] of 19.1%. It also gave a viability, T/C [12] of 13.1%, a viability, T/C [13] of 14.1% and a viability, T/C [14] of 1.26%. For the same molecule, the viability, T/C (second compound 0.316 µM, first compound 0.00316 µM) was 34.2%, the viability, T/C (second compound 0.316 µM, first compound 0.01 µM) was 17.8% and the viability, T/C [15] was 13.5%. It also gave a viability, T/C [16] of 8.84%, a viability, T/C [17] of 1.45% and a viability, T/C [18] of 1.92%. For the same molecule, the viability, T/C (second compound 1 µM, first compound 0.00316 µM) was 0.13%, the viability, T/C (second compound 1 µM, first compound 0.01 µM) was 0.13% and the viability, T/C [19] was 3.09%. The viability, T/C [20] was 0.08%, the viability, T/C [21] was 0.06% and the viability, T/C [22] was 1.66%. It also gave a viability, T/C (second compound 3.16 µM, first compound 0.00316 µM) of 0.07%, a viability, T/C (second compound 3.16 µM, first compound 0.01 µM) of 0.12% and a viability, T/C [23] of 1.53%. For the same molecule, the viability, T/C [24] was 0.09%, the viability, T/C [25] was 3.53% and the viability, T/C [26] was 4.86%. For the same molecule, the viability, T/C (second compound 10 µM, first compound 0.00316 µM) was 0.08%, the viability, T/C (second compound 10 µM, first compound 0.01 µM) was 0.13% and the viability, T/C [27] was 0.18%. It also gave a viability, T/C [28] of 0.13%, a viability, T/C [29] of 3.18% and a viability, T/C [30] of 1.61%.
Work on CC(C)CC(NC(=O)C(Cc1ccccc1)NC(=O)c1cnccn1)B(O)O (stereo not given) + CN1CCN(c2cc(C(=O)Nc3cc4cc(-c5cnn(C)c5)ccc4cn3)ccn2)CC1 yielded a pIC50 [1] of 8.26, a pIC50 [2] of 8.24 and a pIC50 [3] greater than 9.02. It also gave a pIC50 [4] greater than 9.02, a pIC50 [5] greater than 9.02 and a pIC50 [6] greater than 9.02. For the same molecule, the viability, T/C (second compound 0.0316 µM, first compound 0.000949 µM) was 105%, the viability, T/C (second compound 0.0316 µM, first compound 0.003 µM) was 107% and the viability, T/C (second compound 0.0316 µM, first compound 0.00949 µM) was 1.23%. The viability, T/C (second compound 0.0316 µM, first compound 0.03 µM) was 0.23%, the viability, T/C (second compound 0.0316 µM, first compound 0.0949 µM) was 0.16% and the viability, T/C (second compound 0.0316 µM, first compound 0.3 µM) was 1.94%. For the same molecule, the viability, T/C (second compound 0.1 µM, first compound 0.000949 µM) was 121%, the viability, T/C (second compound 0.1 µM, first compound 0.003 µM) was 116% and the viability, T/C (second compound 0.1 µM, first compound 0.00949 µM) was 0.22%. It also gave a viability, T/C (second compound 0.1 µM, first compound 0.03 µM) of 0.19%, a viability, T/C (second compound 0.1 µM, first compound 0.0949 µM) of 0.18% and a viability, T/C (second compound 0.1 µM, first compound 0.3 µM) of 0.18%. The viability, T/C (second compound 0.316 µM, first compound 0.000949 µM) was 29.7%, the viability, T/C (second compound 0.316 µM, first compound 0.003 µM) was 4.76% and the viability, T/C (second compound 0.316 µM, first compound 0.00949 µM) was 0.19%. It also gave a viability, T/C (second compound 0.316 µM, first compound 0.03 µM) of 0.14%, a viability, T/C (second compound 0.316 µM, first compound 0.0949 µM) of 0.16% and a viability, T/C (second compound 0.316 µM, first compound 0.3 µM) of 0.13%. The viability, T/C (second compound 1 µM, first compound 0.000949 µM) was 0.15%, the viability, T/C (second compound 1 µM, first compound 0.003 µM) was 0.17% and the viability, T/C (second compound 1 µM, first compound 0.00949 µM) was 0.34%. It also gave a viability, T/C (second compound 1 µM, first compound 0.03 µM) of 0.1%, a viability, T/C (second compound 1 µM, first compound 0.0949 µM) of 0.1% and a viability, T/C (second compound 1 µM, first compound 0.3 µM) of 1.57%. The viability, T/C (second compound 3.16 µM, first compound 0.000949 µM) was 0.09%, the viability, T/C (second compound 3.16 µM, first compound 0.003 µM) was 0.13% and the viability, T/C (second compound 3.16 µM, first compound 0.00949 µM) was 0.12%. The viability, T/C (second compound 3.16 µM, first compound 0.03 µM) was 0.08%, the viability, T/C (second compound 3.16 µM, first compound 0.0949 µM) was 1.71% and the viability, T/C (second compound 3.16 µM, first compound 0.3 µM) was 0.13%. It also gave a viability, T/C (second compound 10 µM, first compound 0.000949 µM) of 0.08%, a viability, T/C (second compound 10 µM, first compound 0.003 µM) of 0.13% and a viability, T/C (second compound 10 µM, first compound 0.00949 µM) of 0.15%. It also gave a viability, T/C (second compound 10 µM, first compound 0.03 µM) of 0.11%, a viability, T/C (second compound 10 µM, first compound 0.0949 µM) of 2.22% and a viability, T/C (second compound 10 µM, first compound 0.3 µM) of 0.2%.
With CNC(=O)c1ccc(Nc2nc(OC3CCCC3)c3c(-c4ccc5nc(C)oc5c4)c[nH]c3n2)c(OC)c1 the viability, T/C (compound 0.0316 µM) was 90.7% [middle of 12 runs], the viability, T/C (compound 0.1 µM) was 55.7% [middle of 12 runs] and the viability, T/C (compound 0.316 µM) was 44.2% [middle of 12 runs]. The viability, T/C (compound 1 µM) was 45.1% [middle of 12 runs], the viability, T/C (compound 3.16 µM) was 42.3% [middle of 12 runs] and the viability, T/C (compound 10 µM) was 40.3% [middle of 12 runs]. For the same molecule, the IC50 (compound alone, run of 08/01/2023) was 177 nM [middle of 12 runs].
For NC(=O)C(=Cn1cnc(-c2cc(C(F)(F)F)cc(C(F)(F)F)c2)n1)c1cncnc1, the viability, T/C (compound 0.00949 µM) was 99.3% and 94.8%, the viability, T/C (compound 0.03 µM) was 103% and 87.1% and the viability, T/C (compound 0.0949 µM) was 103% and 94.1%. For the same molecule, the viability, T/C (compound 0.3 µM) was 66.9% and 87.5%, the viability, T/C (compound 0.949 µM) was 35.8% and 33.5% and the viability, T/C (compound 3 µM) was 15% and 17.6%. For the same molecule, the pIC50 (curve of compound) was 6.25 and 6.18.

From PubChem BioAssay AID2060610 (Molecular Pharmacology Branch, DTP, NCI, 2025)
